Test results from publication PMC8401933 (Molecules, 2021).

Experiments:
[1] = molecular target: T1, PFPK5(P.falciparum) (Plasmodium falciparum, UniProt P61075); experiment: KINOMEscan binding; conditions: read-out: Percent Control
T1 construct: purchased Eurofins DiscoverX KINOMEscan

[2] = molecular target: T2, RET (Homo sapiens, UniProt P07949); experiment: KINOMEscan binding; conditions: read-out: Percent Control
T2 construct: purchased Eurofins DiscoverX KINOMEscan

[3] = molecular target: T3, FGFR3(G697C) (Homo sapiens, UniProt P22607, G697C); experiment: KINOMEscan binding; conditions: read-out: Percent Control
T3 construct: purchased Eurofins DiscoverX KINOMEscan

[4] = molecular target: T4, DYRK1A (Homo sapiens, UniProt Q13627); experiment: KINOMEscan binding; conditions: read-out: Percent Control
T4 construct: purchased Eurofins DiscoverX KINOMEscan

[5] = molecular target: T5, ASK1 (Homo sapiens, UniProt Q99683); experiment: KINOMEscan binding; conditions: read-out: Percent Control
T5 construct: purchased Eurofins DiscoverX KINOMEscan

[6] = molecular target: T6, SRPK2 (Homo sapiens, UniProt P78362); experiment: KINOMEscan binding; conditions: read-out: Percent Control
T6 construct: purchased Eurofins DiscoverX KINOMEscan

[7] = system: Pparg and Cebpa genes in 3T3-L1 cells; experiment: qRT-PCR of adipogenic genes during differentiation; type: cell-based; conditions: 3T3-L1 during differentiation; KD025 5 μM, CX-4945 10 μM, Y-27632 10 μM
Description: The preadipocyte 3T3-L1 cell line was kindly provided by Dr. Hyun-Sung Park (University of Seoul) and cultured in Dulbecco’s modified Eagle’s medium (DMEM, Sigma-Aldrich) supplied with 10% heat-inactivated newborn calf serum (Invitrogen, CA, USA), 100 units/mL penicillin, and 100 µg/mL streptomycin (Cellgro, VA, USA). The cells were maintained in an incubator at 37 °C and 5% CO2. To initiate differentiation, the cells were incubated for additional days after 100% confluence and then further incubated in a medium containing fetal bovine serum (FBS) and a differentiation cocktail (DMI, 1 μM dexamethasone, 0.5 mM 3-isobutyl-1-methylxanthine, and 5 μg/mL insulin) as previously described. In brief, at day 3, the culture medium was replaced with DMEM/10%FBS containing 5 µg/mL insulin. Then, growth medium was changed every 2 days.
Total RNA was extracted using easy-BLUE (iNtRON Biotechnology, Dajeon, Korea) in accordance with the manufacturer’s protocol. cDNA was synthesized from 2 µg of total RNA using TOPscript^TM Drymix Kit (Enzynomics, Dajeon, Korea). qRT-PCR was performed using TB Green ® Premix Ex Taq^TM II (Tli RNAse H Plus) (TaKaRa, Japan) with Applied Biosystems QuantStudio™ 1 Real-Time PCR System (Thermo Fisher Scientific, Waltham, MA, USA). Gene expression data were normalized based on the use of the same amount of total RNA samples. The relative fold change of gene expression was calculated using the ∆Ct method.

[8] = molecular target: T7, PAK4 (Homo sapiens, UniProt O96013); experiment: KINOMEscan binding; conditions: read-out: Percent Control
T7 construct: purchased Eurofins DiscoverX KINOMEscan

[9] = molecular target: T8, AMPK-alpha1 (Homo sapiens, UniProt Q13131); experiment: KINOMEscan binding; conditions: read-out: Percent Control
T8 construct: purchased Eurofins DiscoverX KINOMEscan

[10] = molecular target: T9, RIPK5 (Homo sapiens, UniProt Q6XUX3); experiment: KINOMEscan binding; conditions: read-out: Percent Control
T9 construct: purchased Eurofins DiscoverX KINOMEscan

[11] = molecular target: T10, BIKE (Homo sapiens, UniProt Q9NSY1); experiment: KINOMEscan binding; conditions: read-out: Percent Control
T10 construct: purchased Eurofins DiscoverX KINOMEscan
T10 sequence (Q9NSY1 whole entry): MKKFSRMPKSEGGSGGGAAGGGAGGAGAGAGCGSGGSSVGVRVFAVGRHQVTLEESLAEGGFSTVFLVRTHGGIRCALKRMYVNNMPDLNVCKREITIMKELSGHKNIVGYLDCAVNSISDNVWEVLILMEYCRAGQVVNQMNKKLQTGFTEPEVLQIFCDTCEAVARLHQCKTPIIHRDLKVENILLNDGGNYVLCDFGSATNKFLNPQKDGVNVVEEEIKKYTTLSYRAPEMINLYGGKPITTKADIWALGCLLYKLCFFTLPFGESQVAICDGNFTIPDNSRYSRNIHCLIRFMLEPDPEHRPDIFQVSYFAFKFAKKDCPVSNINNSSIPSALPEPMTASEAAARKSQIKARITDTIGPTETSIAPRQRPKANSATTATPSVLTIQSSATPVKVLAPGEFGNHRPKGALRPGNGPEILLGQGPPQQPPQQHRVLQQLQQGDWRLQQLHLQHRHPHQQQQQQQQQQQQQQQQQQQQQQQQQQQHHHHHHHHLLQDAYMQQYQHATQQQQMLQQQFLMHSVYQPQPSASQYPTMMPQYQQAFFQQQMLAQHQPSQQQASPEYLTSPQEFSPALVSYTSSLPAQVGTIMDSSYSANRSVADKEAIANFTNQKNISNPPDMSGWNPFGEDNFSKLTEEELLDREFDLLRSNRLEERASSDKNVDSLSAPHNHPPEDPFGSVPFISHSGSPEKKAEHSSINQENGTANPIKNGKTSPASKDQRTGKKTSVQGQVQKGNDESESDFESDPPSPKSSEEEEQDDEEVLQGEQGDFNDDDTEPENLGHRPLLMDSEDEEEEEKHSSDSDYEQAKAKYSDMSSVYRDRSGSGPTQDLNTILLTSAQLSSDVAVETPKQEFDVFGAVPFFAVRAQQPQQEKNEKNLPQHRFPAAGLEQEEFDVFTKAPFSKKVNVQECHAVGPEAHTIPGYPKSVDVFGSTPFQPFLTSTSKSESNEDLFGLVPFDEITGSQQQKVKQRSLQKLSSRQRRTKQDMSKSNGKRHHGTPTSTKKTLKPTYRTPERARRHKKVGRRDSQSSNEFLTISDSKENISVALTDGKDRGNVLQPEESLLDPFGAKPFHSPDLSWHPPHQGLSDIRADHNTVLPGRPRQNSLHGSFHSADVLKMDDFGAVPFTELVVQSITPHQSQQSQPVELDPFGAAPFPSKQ

[12] = molecular target: T11, MEK3 (Homo sapiens, UniProt P46734); experiment: KINOMEscan binding; conditions: read-out: Percent Control
T11 construct: purchased Eurofins DiscoverX KINOMEscan

[13] = molecular target: T12, WNK3 (Homo sapiens, UniProt Q9BYP7); experiment: KINOMEscan binding; conditions: read-out: Percent Control
T12 construct: purchased Eurofins DiscoverX KINOMEscan

[14] = molecular target: T13, KIT(D816V) (Homo sapiens, UniProt P10721, D816V); experiment: KINOMEscan binding; conditions: read-out: Percent Control
T13 construct: purchased Eurofins DiscoverX KINOMEscan
T13 sequence (P10721 26-976 D816V): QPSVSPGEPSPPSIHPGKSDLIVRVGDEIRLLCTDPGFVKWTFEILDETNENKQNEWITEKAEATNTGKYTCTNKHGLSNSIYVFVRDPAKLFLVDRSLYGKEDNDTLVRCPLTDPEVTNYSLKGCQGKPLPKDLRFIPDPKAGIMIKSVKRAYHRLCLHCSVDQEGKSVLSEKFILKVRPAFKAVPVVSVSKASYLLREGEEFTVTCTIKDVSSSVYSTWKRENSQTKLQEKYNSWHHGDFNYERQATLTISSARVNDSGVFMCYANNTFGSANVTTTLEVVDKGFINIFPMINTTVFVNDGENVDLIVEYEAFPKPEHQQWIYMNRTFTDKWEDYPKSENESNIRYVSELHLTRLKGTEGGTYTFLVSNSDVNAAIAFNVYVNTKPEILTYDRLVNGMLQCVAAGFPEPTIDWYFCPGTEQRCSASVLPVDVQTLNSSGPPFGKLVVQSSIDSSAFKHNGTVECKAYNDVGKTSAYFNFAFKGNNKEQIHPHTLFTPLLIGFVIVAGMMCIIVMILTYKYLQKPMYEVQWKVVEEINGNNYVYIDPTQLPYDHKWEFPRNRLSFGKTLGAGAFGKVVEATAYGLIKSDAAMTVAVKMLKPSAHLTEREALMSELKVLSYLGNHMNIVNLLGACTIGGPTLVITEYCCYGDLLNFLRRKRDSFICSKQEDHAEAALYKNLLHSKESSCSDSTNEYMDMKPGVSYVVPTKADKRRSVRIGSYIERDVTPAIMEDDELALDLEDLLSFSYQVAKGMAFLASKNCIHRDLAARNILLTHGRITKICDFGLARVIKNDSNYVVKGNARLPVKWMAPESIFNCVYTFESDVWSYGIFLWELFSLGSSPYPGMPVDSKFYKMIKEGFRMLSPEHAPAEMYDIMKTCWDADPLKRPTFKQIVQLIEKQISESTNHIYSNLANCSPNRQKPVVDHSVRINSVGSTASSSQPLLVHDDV

[15] = molecular target: T14, S6K1 (Homo sapiens, UniProt P23443); experiment: KINOMEscan binding; conditions: read-out: Percent Control
T14 construct: purchased Eurofins DiscoverX KINOMEscan
T14 sequence (P23443 whole entry): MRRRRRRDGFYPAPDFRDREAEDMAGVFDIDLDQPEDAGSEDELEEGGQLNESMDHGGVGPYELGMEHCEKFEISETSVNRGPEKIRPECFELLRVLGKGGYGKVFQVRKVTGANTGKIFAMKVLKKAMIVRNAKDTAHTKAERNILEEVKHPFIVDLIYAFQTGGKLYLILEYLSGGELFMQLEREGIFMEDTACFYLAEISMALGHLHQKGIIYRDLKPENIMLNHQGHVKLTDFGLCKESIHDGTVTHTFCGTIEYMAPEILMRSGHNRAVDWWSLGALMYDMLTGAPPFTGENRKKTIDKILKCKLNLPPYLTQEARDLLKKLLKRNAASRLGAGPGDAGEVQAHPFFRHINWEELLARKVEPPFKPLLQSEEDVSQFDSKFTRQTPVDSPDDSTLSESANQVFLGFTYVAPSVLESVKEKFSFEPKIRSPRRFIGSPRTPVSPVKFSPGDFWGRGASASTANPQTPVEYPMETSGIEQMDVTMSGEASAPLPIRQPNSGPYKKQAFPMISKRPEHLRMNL

[16] = molecular target: T15, CLK4 (Homo sapiens, UniProt Q9HAZ1); experiment: KINOMEscan binding; conditions: read-out: Percent Control
T15 construct: purchased Eurofins DiscoverX KINOMEscan

[17] = molecular target: T16, MUSK (Homo sapiens, UniProt O15146); experiment: KINOMEscan binding; conditions: read-out: Percent Control
T16 construct: purchased Eurofins DiscoverX KINOMEscan

[18] = molecular target: T17, PIK3CA(Q546K) (Homo sapiens, UniProt P42336, Q546K); experiment: KINOMEscan binding; conditions: read-out: Percent Control
T17 construct: purchased Eurofins DiscoverX KINOMEscan

[19] = molecular target: T18, IKK-epsilon (Homo sapiens, UniProt Q14164); experiment: KINOMEscan binding; conditions: read-out: Percent Control
T18 construct: purchased Eurofins DiscoverX KINOMEscan
T18 sequence (Q14164 whole entry): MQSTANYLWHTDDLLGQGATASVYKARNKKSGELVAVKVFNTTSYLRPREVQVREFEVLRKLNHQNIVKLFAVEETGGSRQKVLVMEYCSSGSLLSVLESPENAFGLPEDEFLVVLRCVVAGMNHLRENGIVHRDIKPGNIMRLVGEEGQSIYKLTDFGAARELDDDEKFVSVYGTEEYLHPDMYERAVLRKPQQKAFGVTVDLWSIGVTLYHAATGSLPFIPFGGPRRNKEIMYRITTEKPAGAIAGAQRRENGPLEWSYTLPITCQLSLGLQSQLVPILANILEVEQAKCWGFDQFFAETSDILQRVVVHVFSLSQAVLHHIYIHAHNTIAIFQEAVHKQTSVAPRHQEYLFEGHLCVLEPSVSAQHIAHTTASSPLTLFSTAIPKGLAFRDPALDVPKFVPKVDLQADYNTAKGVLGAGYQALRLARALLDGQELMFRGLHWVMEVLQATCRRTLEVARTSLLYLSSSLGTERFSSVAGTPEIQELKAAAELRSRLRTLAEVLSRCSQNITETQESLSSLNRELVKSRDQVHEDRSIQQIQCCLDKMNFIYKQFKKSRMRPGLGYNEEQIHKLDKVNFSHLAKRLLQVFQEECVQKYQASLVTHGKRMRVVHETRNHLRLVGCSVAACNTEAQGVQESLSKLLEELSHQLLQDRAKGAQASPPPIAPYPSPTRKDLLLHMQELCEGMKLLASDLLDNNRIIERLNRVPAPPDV

[20] = molecular target: T19, YANK3 (Homo sapiens, UniProt Q86UX6); experiment: KINOMEscan binding; conditions: read-out: Percent Control
T19 construct: purchased Eurofins DiscoverX KINOMEscan

[21] = molecular target: T20, PAK7 (Homo sapiens, UniProt Q9P286); experiment: KINOMEscan binding; conditions: read-out: Percent Control
T20 construct: purchased Eurofins DiscoverX KINOMEscan

[22] = molecular target: T21, JNK1 (Homo sapiens, UniProt P45983); experiment: KINOMEscan binding; conditions: read-out: Percent Control
T21 construct: purchased Eurofins DiscoverX KINOMEscan

[23] = molecular target: T22, MRCKB (Homo sapiens, UniProt Q9Y5S2); experiment: KINOMEscan binding; conditions: read-out: Percent Control
T22 construct: purchased Eurofins DiscoverX KINOMEscan

[24] = molecular target: T23, MAST1 (Homo sapiens, UniProt Q9Y2H9); experiment: KINOMEscan binding; conditions: read-out: Percent Control
T23 construct: purchased Eurofins DiscoverX KINOMEscan
T23 sequence (Q9Y2H9 whole entry): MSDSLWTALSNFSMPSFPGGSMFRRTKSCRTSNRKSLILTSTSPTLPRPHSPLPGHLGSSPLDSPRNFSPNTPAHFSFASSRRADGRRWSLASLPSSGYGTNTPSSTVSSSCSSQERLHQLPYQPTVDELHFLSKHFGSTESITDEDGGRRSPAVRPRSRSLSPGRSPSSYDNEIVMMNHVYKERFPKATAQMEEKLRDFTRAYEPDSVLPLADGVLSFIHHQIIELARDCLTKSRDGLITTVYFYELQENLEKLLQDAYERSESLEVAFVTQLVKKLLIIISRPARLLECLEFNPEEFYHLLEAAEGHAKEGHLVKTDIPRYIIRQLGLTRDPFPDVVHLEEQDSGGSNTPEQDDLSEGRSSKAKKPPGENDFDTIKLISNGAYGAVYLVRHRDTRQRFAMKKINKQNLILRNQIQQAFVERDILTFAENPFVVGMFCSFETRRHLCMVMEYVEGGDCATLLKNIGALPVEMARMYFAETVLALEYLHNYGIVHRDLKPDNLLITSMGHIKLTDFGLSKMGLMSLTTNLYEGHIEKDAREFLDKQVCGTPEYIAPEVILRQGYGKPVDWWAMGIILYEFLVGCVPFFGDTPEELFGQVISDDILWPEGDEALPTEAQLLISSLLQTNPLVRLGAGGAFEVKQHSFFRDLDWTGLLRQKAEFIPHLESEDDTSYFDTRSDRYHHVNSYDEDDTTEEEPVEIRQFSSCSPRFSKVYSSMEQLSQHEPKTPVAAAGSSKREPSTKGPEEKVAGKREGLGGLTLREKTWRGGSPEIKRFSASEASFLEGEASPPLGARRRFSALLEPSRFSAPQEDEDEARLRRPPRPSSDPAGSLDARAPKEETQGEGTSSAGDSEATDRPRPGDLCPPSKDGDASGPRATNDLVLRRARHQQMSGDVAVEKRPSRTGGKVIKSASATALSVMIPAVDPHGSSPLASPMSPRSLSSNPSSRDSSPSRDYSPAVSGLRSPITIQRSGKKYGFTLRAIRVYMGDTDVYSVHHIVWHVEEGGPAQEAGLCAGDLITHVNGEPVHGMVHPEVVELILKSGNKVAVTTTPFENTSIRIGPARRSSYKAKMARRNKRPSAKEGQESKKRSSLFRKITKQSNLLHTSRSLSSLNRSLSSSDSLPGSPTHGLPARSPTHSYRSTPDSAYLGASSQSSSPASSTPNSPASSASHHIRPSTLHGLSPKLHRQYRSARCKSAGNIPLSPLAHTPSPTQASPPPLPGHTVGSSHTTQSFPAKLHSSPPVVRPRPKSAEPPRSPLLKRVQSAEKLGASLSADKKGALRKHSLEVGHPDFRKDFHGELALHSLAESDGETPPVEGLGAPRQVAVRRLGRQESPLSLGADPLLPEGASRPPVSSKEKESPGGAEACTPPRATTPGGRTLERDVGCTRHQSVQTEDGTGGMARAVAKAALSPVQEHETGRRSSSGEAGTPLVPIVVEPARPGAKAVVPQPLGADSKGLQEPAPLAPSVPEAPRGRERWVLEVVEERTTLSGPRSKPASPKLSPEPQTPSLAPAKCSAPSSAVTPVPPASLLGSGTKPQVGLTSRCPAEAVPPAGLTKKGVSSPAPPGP

[25] = molecular target: T24, EPHB1 (Homo sapiens, UniProt P54762); experiment: KINOMEscan binding; conditions: read-out: Percent Control
T24 construct: purchased Eurofins DiscoverX KINOMEscan

[26] = molecular target: T25, PFTK1 (Homo sapiens, UniProt O94921); experiment: KINOMEscan binding; conditions: read-out: Percent Control
T25 construct: purchased Eurofins DiscoverX KINOMEscan

[27] = molecular target: T26, KIT(A829P) (Homo sapiens, UniProt P10721, A829P); experiment: KINOMEscan binding; conditions: read-out: Percent Control
T26 construct: purchased Eurofins DiscoverX KINOMEscan
T26 sequence (P10721 26-976 A829P): as the sequence (P10721 26-976 D816V) above, with V791D, A804P counted along it

[28] = molecular target: T27, CDK7 (Homo sapiens, UniProt P50613); experiment: KINOMEscan binding; conditions: read-out: Percent Control
T27 construct: purchased Eurofins DiscoverX KINOMEscan

[29] = molecular target: T28, PRKG2 (Homo sapiens, UniProt Q13237); experiment: KINOMEscan binding; conditions: read-out: Percent Control
T28 construct: purchased Eurofins DiscoverX KINOMEscan

[30] = molecular target: T29, EPHA6 (Homo sapiens, UniProt Q9UF33); experiment: KINOMEscan binding; conditions: read-out: Percent Control
T29 construct: purchased Eurofins DiscoverX KINOMEscan

[31] = molecular target: T30, CAMKK2 (Homo sapiens, UniProt Q96RR4); experiment: KINOMEscan binding; conditions: read-out: Percent Control
T30 construct: purchased Eurofins DiscoverX KINOMEscan

[32] = molecular target: T31, EPHA5 (Homo sapiens, UniProt P54756); experiment: KINOMEscan binding; conditions: read-out: Percent Control
T31 construct: purchased Eurofins DiscoverX KINOMEscan

[33] = molecular target: T32, ADCK3 (Homo sapiens, UniProt Q8NI60); experiment: KINOMEscan binding; conditions: read-out: Percent Control
T32 construct: purchased Eurofins DiscoverX KINOMEscan

[34] = molecular target: T33, EPHA7 (Homo sapiens, UniProt Q15375); experiment: KINOMEscan binding; conditions: read-out: Percent Control
T33 construct: purchased Eurofins DiscoverX KINOMEscan

[35] = molecular target: T34, KIT(D816H) (Homo sapiens, UniProt P10721, D816H); experiment: KINOMEscan binding; conditions: read-out: Percent Control
T34 construct: purchased Eurofins DiscoverX KINOMEscan
T34 sequence (P10721 26-976 D816H): as the sequence (P10721 26-976 D816V) above, with V791H counted along it

CC(C)NC(=O)COc1cccc(-c2nc(Nc3ccc4[nH]ncc4c3)c3ccccc3n2)c1 [KD025, 2-(3-(4-((1H-indazol-5-yl)amino)quinazolin-2-yl)phenoxy)-N-isopropylacetamide]
remaining binding at 10 µM [1]: 100%
remaining binding at 10 µM [2]: 88%
remaining binding at 10 µM [3]: 77%
remaining binding at 10 µM [4]: 72%
remaining binding at 10 µM [5]: 100%
remaining binding at 10 µM [6]: 66%
expression of Pparg and Cebpa genes [7]: suppressed
remaining binding at 10 µM [8]: 100%
remaining binding at 10 µM [9]: 76%
remaining binding at 10 µM [10]: 64%
remaining binding at 10 µM [11]: 3.9%
remaining binding at 10 µM [12]: 77%
remaining binding at 10 µM [13]: 82%
remaining binding at 10 µM [14]: 57%
remaining binding at 10 µM [15]: 74%
remaining binding at 10 µM [16]: 77%
remaining binding at 10 µM [17]: 59%
remaining binding at 10 µM [18]: 84%
remaining binding at 10 µM [19]: 70%
remaining binding at 10 µM [20]: 76%
remaining binding at 10 µM [21]: 100%
remaining binding at 10 µM [22]: 70%
remaining binding at 10 µM [23]: 1%
remaining binding at 10 µM [24]: 100%
remaining binding at 10 µM [25]: 98%
remaining binding at 10 µM [26]: 77%
remaining binding at 10 µM [27]: 53%
remaining binding at 10 µM [28]: 76%
remaining binding at 10 µM [29]: 88%
remaining binding at 10 µM [30]: 90%
remaining binding at 10 µM [31]: 100%
remaining binding at 10 µM [32]: 92%
remaining binding at 10 µM [33]: 78%
remaining binding at 10 µM [34]: 100%
remaining binding at 10 µM [35]: 81%
